Reference: patent publication US5952473A, “Reagent and kit for determining isoprenylating activity and inhibition thereof” (priority 1993, dated 1999)

Biological target: T1, protein:farnesyl transferase (Oryctolagus cuniculus, UniProt G1SFC8+G1T7D9)
T1 construct: immobilised CAAX peptide A and 3H-FPP as substrates
Assay: Inhibition of protein:farnesyl transferase activity in rabbit reticulocyte lysate (pepAsep/pepBsep, 3H-FPP)
Format: biochemical
Conditions: read-out: IC50 -value, 80 pmol peptide on Sepharose beads, 0.7 μM 3H-FPP, 30 min, 37° C., pepAsep minus pepBsep dpm
Method: Commercially available rabbit reticulocyte lysate contains enzymes necessary for protein-isoprenylation, such as protein:farnesyl transferase activity (Vorburger, K., Kitten, G. T. and Nigg, E. G., EMBO J. 8 (1989) 4007-4013) and protein:geranylgeranyl transferase (Maltese, W. A. and Robishaw, J. D., J. Biol. Chem. 265 (1990) 18071-18074). Using pepAsep (example I) as substrate and pepBsep (example I) as control the assay of protein:farnesyl transferase activity was performed as follows: In 25 μl of a mixture containing 5 μl of pepAsep or pepBsep (both containing an equal quantity of peptide), 13 μl rabbit reticulocyte lysate (promega), 0.5 mM MgCl2, 1 mM DTT, 50 mM Tris-HCl (pH 7.4) and [^3 H]-farnesyl pyrophosphate (^3 H-FPP; concentration as indicated in the figures; specific radioactivity 15 Ci/mmol; ARC, USA) the incubation was performed at 37° C. for 30 min with continuous shaking. […] The radioactivity bound to the Sepharose was measured in a Packaged Tricarb liquid scintillation counter. […]
80 pmol of pepAsep and pepBsep/5 μl Sepharose were incubated for 30 minutes in the presence of 0.7 μM of [^3 H]-FPP and the indicated concentrations of the farnesyl pyrophosphate analogues FPPA1 and FPPA2 as mentioned in Example IV. The farnesylation activity was calculated as ^3 H-dpm bound to pepAsep minus the pepBsep-bound-dpm and expressed as percentage of control (without inhibitor).

With `CC(C)=CCCC(C)=CCCC(C)=CCP(=O)(O)OP(=O)(O)O` [FPPA2, farnesyl phosphonophosphate] as the compound, how does the IC50 read?
The IC50 was 290 ± 20 nM.
